The values below come from ChEMBL document CHEMBL1201862, “PubChem BioAssay data set” (2004).

Activity calls are given as the source filed them.

For assay [1], the target named is T1, Protein RecA (Mycobacterium tuberculosis, UniProt P9WHJ3).
T1 sequence (P9WHJ3 whole entry): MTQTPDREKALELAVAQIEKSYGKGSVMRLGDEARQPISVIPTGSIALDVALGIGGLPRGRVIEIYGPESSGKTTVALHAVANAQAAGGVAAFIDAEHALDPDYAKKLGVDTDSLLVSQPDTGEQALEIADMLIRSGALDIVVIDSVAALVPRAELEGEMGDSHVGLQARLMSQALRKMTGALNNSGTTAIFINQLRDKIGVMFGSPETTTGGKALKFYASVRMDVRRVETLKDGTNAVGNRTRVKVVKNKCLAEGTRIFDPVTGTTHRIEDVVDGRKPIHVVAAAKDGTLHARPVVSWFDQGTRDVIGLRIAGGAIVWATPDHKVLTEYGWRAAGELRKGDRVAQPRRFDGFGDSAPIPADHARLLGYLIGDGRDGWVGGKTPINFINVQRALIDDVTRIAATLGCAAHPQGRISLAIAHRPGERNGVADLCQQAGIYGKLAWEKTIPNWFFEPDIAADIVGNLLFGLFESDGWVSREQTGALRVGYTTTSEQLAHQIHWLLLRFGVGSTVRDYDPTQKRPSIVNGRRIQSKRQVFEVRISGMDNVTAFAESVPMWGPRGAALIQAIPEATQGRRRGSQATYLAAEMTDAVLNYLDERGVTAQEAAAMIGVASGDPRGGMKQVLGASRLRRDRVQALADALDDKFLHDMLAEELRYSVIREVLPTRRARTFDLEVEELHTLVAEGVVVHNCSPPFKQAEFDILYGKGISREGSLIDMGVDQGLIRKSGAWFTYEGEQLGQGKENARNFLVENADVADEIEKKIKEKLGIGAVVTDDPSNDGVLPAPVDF
Put plainly: Fluorescence Cell-Free Homogeneous Dose Retest to Identify Inhibitors of RecA-Intein Splicing Activity. [Related pubchem assays (depositor defined):AID2097, AID2223, AID489010, AID492950]. In kind it is functional.

In assay [2] the target is T2, Sentrin-specific protease 6 (Homo sapiens, UniProt Q9GZR1).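 Also: Luminescence-based dose-response confirmatory assay of SENP6 inhibition, following up an ultra-high-throughput screen.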
T2 sequence (Q9GZR1 whole entry): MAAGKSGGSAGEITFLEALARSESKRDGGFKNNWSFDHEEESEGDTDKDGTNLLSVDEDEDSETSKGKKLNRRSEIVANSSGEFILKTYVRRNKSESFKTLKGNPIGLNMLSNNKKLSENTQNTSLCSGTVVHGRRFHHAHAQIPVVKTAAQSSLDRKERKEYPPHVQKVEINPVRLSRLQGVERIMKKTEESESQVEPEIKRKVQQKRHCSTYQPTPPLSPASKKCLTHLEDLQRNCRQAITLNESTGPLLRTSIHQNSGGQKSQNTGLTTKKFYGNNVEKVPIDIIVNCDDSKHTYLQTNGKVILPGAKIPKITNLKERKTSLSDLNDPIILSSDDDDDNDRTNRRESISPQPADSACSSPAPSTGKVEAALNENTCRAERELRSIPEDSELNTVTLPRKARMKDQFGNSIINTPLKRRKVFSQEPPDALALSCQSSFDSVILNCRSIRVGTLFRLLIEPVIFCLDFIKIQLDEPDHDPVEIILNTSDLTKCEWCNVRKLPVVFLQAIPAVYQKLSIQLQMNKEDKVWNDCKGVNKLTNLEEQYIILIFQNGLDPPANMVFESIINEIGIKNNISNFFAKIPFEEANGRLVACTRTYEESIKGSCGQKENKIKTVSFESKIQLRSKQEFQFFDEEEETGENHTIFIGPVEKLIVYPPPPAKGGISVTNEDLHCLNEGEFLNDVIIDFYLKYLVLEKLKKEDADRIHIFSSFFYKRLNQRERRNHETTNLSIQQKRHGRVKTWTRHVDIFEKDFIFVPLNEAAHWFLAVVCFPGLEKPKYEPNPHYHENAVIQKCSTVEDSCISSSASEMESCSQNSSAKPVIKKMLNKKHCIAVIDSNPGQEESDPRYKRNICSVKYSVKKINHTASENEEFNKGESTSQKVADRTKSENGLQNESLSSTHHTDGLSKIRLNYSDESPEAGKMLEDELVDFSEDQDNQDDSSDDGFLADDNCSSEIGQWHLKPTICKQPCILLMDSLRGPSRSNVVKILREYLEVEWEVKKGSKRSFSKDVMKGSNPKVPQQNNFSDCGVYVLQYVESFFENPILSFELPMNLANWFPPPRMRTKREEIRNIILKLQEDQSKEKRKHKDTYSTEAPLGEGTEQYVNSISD
In kind it is functional.

Assay [3] has as its target T3, Sentrin-specific protease 8 (Homo sapiens, UniProt Q96LD8).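 Also: luminescence read-out of SENP8 inhibition, dose-response confirmation following an ultra-high-throughput screen.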
T3 sequence (Q96LD8 whole entry): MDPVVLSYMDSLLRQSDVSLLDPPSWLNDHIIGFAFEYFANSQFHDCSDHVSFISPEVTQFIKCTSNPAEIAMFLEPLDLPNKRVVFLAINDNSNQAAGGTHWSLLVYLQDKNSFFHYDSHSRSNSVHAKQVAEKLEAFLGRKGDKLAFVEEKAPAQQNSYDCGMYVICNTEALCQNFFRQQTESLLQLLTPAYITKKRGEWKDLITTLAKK
The class given is functional.

Assay [4] has as its target T4, Streptokinase A (Streptococcus pyogenes serotype M1, UniProt P10520).
T4 sequence (P10520 whole entry): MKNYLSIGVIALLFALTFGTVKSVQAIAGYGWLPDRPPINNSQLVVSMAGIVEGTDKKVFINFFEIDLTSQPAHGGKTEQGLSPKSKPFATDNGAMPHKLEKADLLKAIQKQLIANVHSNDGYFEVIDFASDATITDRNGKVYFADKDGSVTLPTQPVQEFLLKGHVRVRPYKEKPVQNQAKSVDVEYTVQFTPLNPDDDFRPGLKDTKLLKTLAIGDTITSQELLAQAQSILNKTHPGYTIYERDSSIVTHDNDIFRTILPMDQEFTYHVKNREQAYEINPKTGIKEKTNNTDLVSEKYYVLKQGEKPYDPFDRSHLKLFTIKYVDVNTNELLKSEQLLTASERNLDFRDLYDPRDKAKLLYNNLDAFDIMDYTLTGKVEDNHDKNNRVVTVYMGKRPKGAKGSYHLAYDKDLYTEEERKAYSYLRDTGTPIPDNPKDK
In words: S. pyogenes streptokinase expression inhibitors, potency, dose response, plasminogen activation absorbance, OD405 (AID 1914).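 Also: secreted streptokinase activity via plasminogen activation per viability signal from cell pellet.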 In kind it is functional, Streptococcus pyogenes M1 GAS.

One may read the EC50 as the concentration that produces a half-maximal response. As to `O=C1C(Cl)=C(NCc2cccnc2)C(=O)c2ccccc21`, in assay [1], the EC50 was 2.17 µM (active).

As a reminder, the IC50 is the point on the concentration scale where inhibition reaches its midpoint. Regarding `Nc1ccc(Br)c2cccnc12`, the IC50 in assay [2] was 7.46 µM (active); in assay [3], 10 µM (active).

Consider `CN(C)c1ncc(C2=C(Cl)C(=O)C(N3CCCC3)=C(Cl)C2=O)s1`, for which the EC50 in assay [4] is > 150 µM (not active); in assay [1], 3.81 µM (active).

Take `Cc1ccc(C(=O)c2c(C)oc3c2C(=O)C(=O)c2ccccc2-3)cc1`: in assay [4], the EC50 was > 150 µM (not active). Also, the IC50 in assay [2] was 4.76 µM (active); in assay [3] it was 7.82 µM (active).

As for `Cc1cnc(NC(=O)c2sc3ccccc3c2Cl)s1`, the IC50 in assay [2] was > 100 µM (inactive); in assay [3], 2.56 µM (active).

In the case of `O=C1C(O)=C/C(=N\c2ccccc2O)c2ccccc21`, the results for the EC50 in assay [4] and in assay [1] were 132 µM (active) and 12.3 µM (active), respectively. The half-maximal inhibitory concentration (IC50) in assay [2] was 2.95 µM (active); in assay [3], 5.23 µM (active).

`Cc1ccc(Nc2cc(C)nn2-c2nc(C)cc(O)n2)cc1`: in assay [1], the EC50 is 61.4 µM (active).
